The record followed here is EP1736150A2 (Pfizer, Inc., priority 1997, dated 1999).

For orientation: AUC(0-t) means exposure summed from dosing to a finite time, without extrapolation to infinity. Low readings indicate low exposure, high ones high exposure.

Data set [1] relates to healthy male human subjects. Nature of the data set: Side effects by visual analogue scales and emesis (Example 2). The format is in vivo.
Data set [2] can be described thus: Plasma pharmacokinetics, bolus versus 15 hr divided dosing (Example 1). The conditions noted are these: human. The format is in vivo.
Data set [3] relates to healthy male human subjects. As to the kind of experiment: Side effects by visual analogue scales and emesis (Example 1). The format is in vivo.
Data set [4] relates to healthy male human subjects. As to the kind of experiment: Side effect score versus plasma concentration, PK/PD (Example 6). In kind it is in vivo.
Data set [5] can be described thus: Plasma pharmacokinetics, bolus versus 7 hr divided dosing (Example 2). The format is in vivo. To be noted: human, fasted, mean; for AUC(0-t): po, 200 mg.
Data set [6] is described as follows: Pharmacokinetics of sertraline delivered to various portions of the gastrointestinal tract (Example 3). The format is in vivo. To be noted: for AUC(0-t): human, plasma; for AUC(0-t) / AUC as percent of the AUC observed after dosing with oral tablets: 200 mg.
Data set [7] in a line: Accelerated chemical stability (reverse phase HPLC). The conditions noted are these: same accelerated stability conditions.
Data set [8] in a line: Hygroscopicity (moisture microbalance). The conditions noted are these: 10% to 90% humidity, 25°C. In kind it is physicochemical. The protocol:
A temperature of 25°C is maintained during all hygroscopicity measurements.

The nature of data set [9]: Mechanical properties of compacts of the pure drug substance. The format is physicochemical. The protocol:
The measurements of mechanical properties can be routinely accomplished using square compacts of the pure drug substance, in this case sertraline acetate and sertraline L-lactate. The measurements are made in triplicate and the compacts are prepared by uniaxial compression and triaxial decompression.
Samples for the testing of mechanical properties are prepared according to standard procedures. To generate reliable data, such samples must be free of mechanical flaws, such as microcracks. Therefore, a specialized tablet press, prepared as described in U.S. Patent No. 4,880,373, is utilized. […] The apparent density of the compact is determined by measuring the […]. […] The true density of the powder is determined by helium pycnometry. Ordinarily, to achieve the desired solid fraction, trial compactions of carefully weighed powder samples must be performed and the solid fraction of the resultant compact is measured. […]
Dynamic indentation hardness, H0, of the compacts is measured with a pendulum impact apparatus , prepared as described in U.S. Patent No. 4,885,933. […] The time required for the pendulum to pass between two photocells of given distance apart is measured and the pendulum rebound height, hr is automatically calculated. […]

[10] abbreviates: 200 mg bolus dose group, individual subjects.
Setting [11] is: GROUP B (8 Divided Doses) 25 mg hourly.
Where [12] appears, read: 200 mg single dose (Group A), two 100 mg immediate release tablets (ZOLOFT), oral, fasted, mean.
[13] abbreviates: GROUP A (Bolus Dose) 200 mg, summed over 24 hr post-dose.
The mark [14] stands for this setting: GROUP B (16 Divided Doses) 12.5 mg hourly, summed over 24 hr post-dose.
Where [15] appears, read: 200 mg single dose, two 100 mg immediate release tablets (ZOLOFT), oral, four subjects with emesis not included.
Setting [16] is: GROUP A, Ileocecal Infusion, 200 mg as 2 mg/ml solution.
Where [17] appears, read: GROUP A, Stomach Infusion, 200 mg as 2 mg/ml solution.
Setting [18] is: GROUP B, Colonic Infusion (transverse colon), 200 mg as 2 mg/ml solution.
Where [19] appears, read: GROUP B, Duodenal Infusion, 200 mg as 2 mg/ml solution.

Values joined by “and” are separate entries in the source; they are usually repeats but may differ in a detail not shown here. Identical values can stand only once.

For the compound `CN[C@H]1CC[C@@H](c2ccc(Cl)c(Cl)c2)c2ccccc21` [sertraline, (1S-cis)-4-(3,4-dichlorophenyl)-1,2,3,4-tetrahydro-N-methyl-1-naphthalenamine], the time of emesis in data set [1] (setting [10]) was 2.6 hr and 2.8 hr (2×) and 3.8 hr; in [1] (7 hr divided dose regimen, one subject), 12.6 h; in [3] (setting [10]), 4.25 h and 11.2 h and 7.6 h; in [4] (Study II, 200 mg dose group, individual subjects) it was 2.6 hr and 2.8 hr (2×) and 3.8 hr. The same compound displayed an emetic events in [1] (7 hr divided dose group, 8 x 25 mg (n=16)) of 1. Besides, the “Mean cumulative score: Dizziness” value in data set [1] (GROUP A (Bolus Dose) 200 mg) turned out to be 10.4; in [1] (setting [11]), 4.8. The “Mean cumulative score: Regurgitation” value in [1] (GROUP A (Bolus Dose) 200 mg) was 3.9; in [1] (setting [11]), 0.1; in [3] (setting [13]) it was 4.0; in data set [3] (setting [14]), 0.3. Moreover, the “Mean cumulative score: Tremor” value is 8.9 in data set [1] (GROUP A (Bolus Dose) 200 mg), 2.7 in data set [1] (setting [11]), 7.9 in data set [3] (setting [13]) and 1.7 in data set [3] (setting [14]). The exposure AUC(0-t) in data set [2] (setting [12]) turned out to be 1650 ng·h/mL; in data set [2] (po) it was 1230 ng·h/mL; in data set [5] (25 mg per hr for 7 hr, eight 25 mg doses as solution), 1440 ng·h/mL; in data set [5] (200 mg single dose, two 100 mg immediate release tablets (ZOLOFT), four subjects with emesis not included), 1740 ng·h/mL; in data set [6] (setting [16]), 727 ng·h/mL; in data set [6] (setting [17]), 923 ng·h/mL. The AUC(0-t) in [6] (setting [18]) amounted to 179 ng·h/mL; in [6] (setting [19]), 1270 ng·h/mL; in [6] (po, GROUP A, Oral Tablet, 200 mg as two 100 mg tablets), 1170 ng·h/mL; in data set [6] (po, GROUP B, Oral Tablet, 200 mg as two 100 mg tablets), 1150 ng·h/mL. In addition, the CMAX worked out at 74 ng/mL in data set [2] (setting [12]); 75 ng/mL in data set [5] (setting [15]); 27.3 ng/mL in data set [6] (setting [16]); 39.9 ng/mL in [6] (GROUP A, Oral Tablet, 200 mg as two 100 mg tablets, 6 volunteers); 35.6 ng/mL in data set [6] (setting [17]); 10.9 ng/mL in data set [6] (setting [18]). Besides, the CMAX in [6] (setting [19]) worked out at 48.8 ng/mL; in data set [6] (GROUP B, Oral Tablet, 200 mg as two 100 mg tablets, 6 volunteers), 44.7 ng/mL. Also, the TMAX in [2] (setting [12]) is 6 h; in data set [5] (setting [15]), 5.4 h; in data set [6] (setting [16]), 5.0 h; in [6] (GROUP A, Oral Tablet, 200 mg as two 100 mg tablets) it was 7.0 h; in data set [6] (setting [17]), 7.0 h; in [6] (setting [18]), 4.4 h. The TMAX in data set [6] (setting [19]) was found to be 3.7 h; in data set [6] (GROUP B, Oral Tablet, 200 mg as two 100 mg tablets) it was 6.7 h. Also, in [3] (200 mg bolus dose group (15 subjects)), the subjects with emesis result is reported as “Three”. In data set [3] (15 hr divided dose regimen (16 x 12.5 mg)), the emetic episodes result is “no emetic episodes”. Further, the “Mean cumulative score: Abdominal Cramping” value in data set [3] (setting [13]) was 3.1; in data set [3] (setting [14]), 0.1. Also, the figures for the “Mean cumulative score: Diarrhea” value in data set [3] (setting [13]) and in [3] (setting [14]) were 3.9 and 0.2, respectively. The “Mean cumulative score: Nausea” value in [3] (setting [13]) stood at 17.5; in data set [3] (setting [14]), 2.6. Also, in [3] (setting [13]), the “Mean cumulative score: Urgency to Defecate” value stood at 3.1. Further, the “Mean cumulative score: Abdominal Pain” value in [3] (GROUP A (Bolus Dose) 200 mg, visual analogue scores summed over 24 hr post-dose) turned out to be 2.7; in data set [3] (setting [14]), 0.1. For the same compound, the “time at which the maximum diarrhea score was reached” value in [4] (Study 1, 200 mg bolus dose, post-dose) came out at 3 h. For the same compound, the “AUC as percent of the AUC observed after dosing with oral tablets” value was determined as 110% in [6] (infusion into the duodenal region), 62% in data set [6] (infusion into the ileocecal region of the small intestine), 79% in data set [6] (infusion into the stomach) and 16% in data set [6] (infusion into the transverse colon).

`CN[C@H]1CC[C@@H](c2ccc(Cl)c(Cl)c2)c2ccccc21.N[C@@H](CC(=O)O)C(=O)O` [sertraline L-aspartate]: the “purity of samples after stability testing” value in [7] was “greater than 99%”. In data set [8], the hygroscopicity entry is listed as “not hygroscopic”.

As for sertraline acetate, the “purity of samples after stability testing” value in data set [7] is “greater than 99%”. In addition, in [9], the “ductility (assessment in words)” value is “high ductility” and the “elastic modulus (assessment in words)” value is recorded as “relatively low elastic modulus”. In addition, the hygroscopicity entry in [8] is listed as “not hygroscopic”.
